Reference: US12329799B2, “Peptidyl inhibitors of calcineurin-NFAT interaction” (Ohio State Innovation Foundation, priority 2018, dated 2025)
Positions of bridges follow the written chain, without caps; N, C: chain ends. Non-standard residues stand in square brackets, D forms with d. Residues, ends and D or L forms follow the SMILES beside them. Chains are numbered I, II in the order given. *: point of attachment. 2Nal = N[C@@H](Cc1ccc2ccccc2c1)C(=O)O; Val(3-OH) = CC(C)(O)[C@H](N)C(=O)O; Tle = CC(C)(C)[C@H](N)C(=O)O; X1 = O=C(c1ccnc(Cl)c1Cl)*; AEEA = NCCOCCOCC(=O)O

Tests used:
HCT116 cell spheroids = test: Cellular entry and intracellular stability by MALDI-TOF MS imaging; format: cell-based; settings: 5 μM, 24 h of incubation
Experimental: Intracellular Stability. HCT116 cell spheroids in RPMI-1640 medium supplemented with 10% FBS and 1% penicillin/streptomycin were treated with 5 μM CNI103 for 4 or 24 h. Spheroids were washed three times with warm DPBS, quickly frozen, embedded in a solid support and cryo-sectioned. Prior to analysis, sinapinic acid was sublimed onto individual slides, which were subsequently imaged using a Bruker ultrafleXtreme MALDI-TOF-TOF mass spectrometer. The spectra were analyzed for intact CNI103 as well as proteolytic degradation fragments of interest. The MS signal intensity data were used to generate Heatmaps, scaled relative to the most intense signal, for each time point and fragment.

[1] = Caco-2 permeability assay; format: in vitro ADME; settings: human, Caco-2, pH 7.4
Experimental: (§1) Caco-2 permeability assay. To assay the permeability of test compounds by Caco-2 cell model, Caco-2 cells were cultured to confluency before being trypsinized and seeded onto filter transwell inserts at a density of 30,000 cells/well in DMEM medium. Cells were cultured in a humidified atmosphere with 5% CO2 at 37° C. After overnight attachment, cell medium was replaced with fresh medium at both apical and basolateral sides every other day. The cell monolayers are ready for the assay 20 days post seeding. […] The dosing solution at 10 μM was obtained by diluting 10 mM stock solution in HBSS medium (pH 7.4, 25 mM HEPES) freshly before the assay. Terfenadine (25 ng/mL) and Tolbutamide (50 ng/mL) were added into dosing solution as internal standards. […] The culture medium from either the basolateral side (plate B) or apical side (plate A) were aspirated and then rinsed with HBSS medium once. Afterwards, the dosing medium was added to either basolateral or apical side. Following the incubation, 100 microliter samples from both sides were harvested at time 0 and time 90 min. Samples were quenched with acetonitrile/methanol (1:1 v/v), centrifuged, and analyzed on a Shimadzu reversed-phase HPLC and Sciex API4500 Q trap instrument.
(§2) Permeability parameters were calculated using the following equations and shown in Table 10: Papp=(Conc.receiver,90 min*Volumereceiver)/(Time*Membrane Area*Conc.donor,0 min) Efflux Ratio=Papp[B to A]/Papp[A to B]

Caco-2 cell monolayers = test: Caco-2 permeability assay; format: in vitro ADME
Experimental: as §1, §2

[2] = Liver microsome stability assay; format: in vitro ADME; settings: mouse liver microsome
Experimental: Liver microsome stability assay. Liver microsome stability was assessed using mouse microsome (cat. M1000, XenoTech). Ten mM stock solution of CNI103 was similarly prepared in DMSO. One hundred micromolar of CNI103 solution was prepared by diluting the DMSO stock in phosphate buffer (50 mM potassium phosphate, pH 7.4). To assay the stability, liver microsomes (final concentration 0.5 mg/mL) were mixed with testing samples gently and incubated at 37° C. for 5 min. At varying time points post reaction (0, 5, 15, 30, and 60 min), 25 microliter aliquots were withdrawn and each aliquot (25 microliter) was quenched with 300 μL of an internal standard solution (25 ng/mL terfenadine in 1:1 v/v methanol/acetonitrile) followed by vigorous vortexing and centrifugation. To assess metabolism by P450 enzymes, the microsome degradation reaction was supplemented with NADPH (final 1 mM) followed by gentle mixing. 100 μL aliquots of the reaction mixture were withdrawn at 0, 30, or 60 min, diluted two fold with distilled water, and subjected to LC-MS/MS analysis on a reversed-phase HPLC coupled with Sciex 4500 Q-trap based quantification.

[3] = Stability in mouse hepatocytes; format: in vitro ADME
Experimental: (§3) Stability of CNI103 in mouse hepatocytes. Hepatocyte stability was assessed by using mouse hepatocyte (cat. M005052, BioIVT). Mouse hepatocytes were revived following manufacturer's procedure with Cryopreserved Hepatocyte Recovery Medium and used for the assay when cell viability was greater than 70%. Testing compound (at 2 μM) was mixed with mouse hepatocytes at 37° C. in a humidified incubator with 5% CO2. Final hepatocyte cell density was 2 million per mL. […] of the resulting supernatant was diluted two fold with distilled water and analyzed by reversed-phase HPLC coupled with Sciex 4500 Q-trap based quantification.

mouse hepatocytes = test: Stability in mouse hepatocytes; format: in vitro ADME; settings: 2 μM
Experimental: as §3

in vitro = in vitro ADME; set-up: dose or concentration left out as unconfirmed; settings: mouse
Experimental: Plasma binding was assessed using mouse plasma obtained from in-life studies. CNI103 was diluted to […] in pre-warmed mouse plasma. The solution was added to the left chamber of a commercial plate based RED (rapid equilibrium dialysis) device. Isotonic sodium phosphate buffer (100 mM sodium phosphate, 100 mM sodium chloride, pH 7.4) was added to the outer chamber of the RED device and the plate was incubated at 37° C. for five hours. Aliquots of the buffer and the plasma were withdrawn before and after the incubation and the concentrations of free and bound test compound were determined by LC/MS/MS analysis. To test for plasma stability, the dosing solution was also incubated at 37° C. for 5 hours and the concentration of CNI103 was determined by LC/MS/MS analysis as described above.
The calculation of percentage binding is calculated using the following equations and the results are presented in Table 13: Binding %=(Cpe−Cb)/Cpe×100 • Cpe=Conc. of test compound in plasma at equilibrium • Cb=Conc. of test compound in buffer at equilibrium % Stability of test compound=(Conc. of stability sample/Conc. of time zero sample)×100 % Recovery=(Cpe+Cb)/Conc. of stability sample×100

[4] = Stability in simulated gastric fluid (SGF); format: in vitro ADME
Experimental: (§4) Stability of CNI103 in simulated gastric fluid (SGF) was evaluated by diluting CNI103 (final 5 μM) in FaSSGF buffer (pH 1.2), which was prepared from FaSSGF powder (cat no. FFF01, BioRelavant). Similarly, stability of CNI103 in simulated intestinal fluid (SIF) was evaluated by diluting CNI103 (final 5 μM) in FaSSIF buffer (pH 6.5), which was prepared from FaSSIF powder (cat no. FFF-1017-B, BioRelavant) supplemented with Lecithin and maleic acid. The solutions were incubated at 37° C. for 5, 15, 30, 60, or 120 min, and the concentration of remaining CNI103 was determined by LC/MS/MS analysis as described above.

[5] = Stability in simulated intestinal fluid (SIF); format: in vitro ADME
Experimental: as §4

- Papp A→B at 90 min, 10 μM ([1]; N = 2, 10 μM, 90 min): 7.5 ×10⁻⁶ cm/s
- Papp B→A at 90 min, 10 μM ([1]; N = 2, 10 μM, 90 min): 2.1 ×10⁻⁶ cm/s
- efflux ratio at 90 min, 10 μM ([1]; Papp[B to A]/Papp[A to B]): 0.3
- Pgp Substrate (Caco-2 cell monolayers): No
- remaining at 0.25 h ([2]; liver microsomes, pH 7.4, 15 min, read-out: % remaining (+NADPH)): 95.8%
- remaining at 0.5 h ([2]; liver microsomes, pH 7.4, 30 min, read-out: % remaining (+NADPH)): 76%
- remaining at 1 h ([2]; liver microsomes, pH 7.4, 60 min, read-out: % remaining (+NADPH)): 75.1%
- % remaining (+NADPH) ([2]; 0 min): 100.0%
- % remaining (−NADPH) ([2]; 0 min): 100.0%
- % remaining (+NADPH) ([2]; 5 min): 131.1%
- % remaining (−NADPH) ([2]; 30 min): 113.6%
- % remaining (−NADPH) ([2]; 60 min): 70.8%
- remaining at 0.25 h, 2 μM ([3]; 15 min): 103%
- remaining at 0.5 h, 2 μM ([3]; 30 min): 101%
- remaining at 1 h, 2 μM ([3]; 60 min): 120%
- % remaining (mouse hepatocytes; 0 min): 100.00%
- % remaining (mouse hepatocytes; 90 min): 141.77%
- % remaining (mouse hepatocytes; 120 min): 124.89%
- recovery at 5 hours (in vitro; pH 7.4): 130%
- remaining at 5 h (in vitro; plasma): 110%
- fraction unbound at 5 h (in vitro; plasma, pH 7.4): 0.024
- % remaining ([4]; SGF (FaSSGF, pH 1.2), 37° C., 0 min, n = 2): 100.00%
- remaining at 5 min, 5 μM ([4]; simulated gastric fluid (FaSSGF), pH 1.2, SGF, 5 min): 93.7%
- remaining at 0.25 h, 5 μM ([4]; simulated gastric fluid (FaSSGF), pH 1.2, SGF, 15 min): 87.4%
- remaining at 0.5 h, 5 μM ([4]; simulated gastric fluid (FaSSGF), pH 1.2, SGF, 30 min): 88.3%
- remaining at 1 h, 5 μM ([4]; simulated gastric fluid (FaSSGF), pH 1.2, SGF, 60 min): 106%
- remaining at 2 h, 5 μM ([4]; simulated gastric fluid (FaSSGF), pH 1.2, SGF, 120 min): 103%
- % remaining ([5]; SIF (FaSSIF, pH 6.5), 37° C., 0 min, n = 2): 100.00%
- remaining at 5 min, 5 μM ([5]; simulated intestinal fluid (FaSSIF), pH 6.5, SIF, 5 min): 92.3%
- remaining at 0.25 h, 5 μM ([5]; simulated intestinal fluid (FaSSIF), pH 6.5, SIF, 15 min): 109%
- remaining at 0.5 h, 5 μM ([5]; simulated intestinal fluid (FaSSIF), pH 6.5, SIF, 30 min): 109%
- remaining at 1 h, 5 μM ([5]; simulated intestinal fluid (FaSSIF), pH 6.5, SIF, 60 min): 95.9%
- remaining at 2 h, 5 μM ([5]; simulated intestinal fluid (FaSSIF), pH 6.5, SIF, 120 min): 75.6%
SMILES: CC[C@H](C)[C@H](NC(=O)[C@@H](NC(=O)c1ccnc(Cl)c1Cl)C(C)(C)C)C(=O)N[C@H](C(=O)N[C@H](C(=O)N[C@H](C(=O)N[C@@H](CCC(N)=O)C(=O)N[C@@H](Cc1c[nH]cn1)C(=O)N[C@H](CC(C)C)C(=O)N[C@@H](CO)C(=O)NCCOCCOCC(=O)N[C@@H](CCCCNC(=O)CC[C@@H]1NC(=O)[C@@H](CCCNC(=N)N)NC(=O)[C@H](CCCNC(=N)N)NC(=O)[C@@H](CCCNC(=N)N)NC(=O)[C@H](CCCNC(=N)N)NC(=O)[C@H](Cc2ccc3ccccc3c2)NC(=O)[C@@H](Cc2ccccc2)NC1=O)C(N)=O)[C@@H](C)O)[C@@H](C)CC)C(C)(C)O [CNI103, (DCNA)-Tle-Ile-Bhv-Ile-Thr-Gln-His-(D-Leu)-Ser-miniPEG-Lys{[cyclo-(Gln-(D-Arg)-Arg-(D-Arg)-Arg-(2-Nal)-(D-Phe)]}-NH2] (I: X1-[Tle]I[Val(3-OH)]ITQH[dL]S[AEEA]K-NH2 / II: cyclo([2Nal]R[dR]R[dR]E[dF]); amide I:11-II:6 (inferred); ring closure inferred)
- intracellular degradation (HCT116 cell spheroids): No significant degradation product signal
